This is an account of results in patent publication US8178704B2, “Inositol-phosphate derivatives and method of detecting inositol-1-phosphate” (CIS Bio International, priority 2004, dated 2012).

“Also recorded” adds a separate entry of the source.

The subject of assay [1] is anti-IP1 antibodies. The assay can be described thus: Specificity of the anti-IP1 antibodies evaluated by competition ELISA. It counts as binding, mouse. Particulars: competition with plate-bound IP1-biotin; competitors 1 nM to 100 μM (myo-inositol 10 nM to 1 mM). The method, then:
NUNC 96-well microtiter plates coated with streptavidin (13 pmol/well) are used. 100 μl of IP1-biotin conjugate prepared according to Example 9 at a concentration of 0.25 μg/ml are distributed and the mixture is incubated for 2 h 30 min at room temperature with stirring. The mixture is washed three times with water containing 0.1% Tween20. 50 μl of solutions of competitors are added so as to prepare the following final concentration ranges: myo-inositol (10 nM at 1 mM), IP1 Sigma (1 nM to 100 μM), IP2 (1 nM to 100 μM), IP3 (1 nM to 100 μM), PiP2 (1 nM to 100 μM) as well as 50 μl of culture supernatants secreting anti-IP1 antibodies. The mixture is incubated for 16 h at 4° C. and then washed three times with water containing 0.1% Tween20. 100 μl of conjugate anti-IgG (mouse)-peroxidase (Sigma # A 0168) diluted 1/60 000 in PBS 0.3% BSA are added. The mixture is incubated for 1 h at room temperature with stirring and then three washes are performed with 10 PBS 0.1% Tween20. 100 μl of TMB substrate (Sigma # T 8665) are distributed and the mixture is incubated for 30 min at room temperature with stirring and then 100 μl of stop reagent (Sigma # S5814) are distributed and the optical densities are measured at 450 nm.
The optical density at 450 nm is plotted against the logarithm of the concentration of compound whose competition it is desired to test. For all the compounds tested in competition, the maximum optical density OD450˜1.5 is observed at the lowest concentrations (1 nM).
(In general: An ELISA detects its analyte on a solid surface through an enzyme-linked reagent.)

The test system of assay [2] is mGlu5 receptor. Description: IP1 assay (TR-FRET) on HEK-293 cells expressing the mGlu5 receptor, effect of an inverse agonist. It counts as cell-based. Particulars: MPEP 5 nM to 100 μM, 1 hour; FIGS. 16A, 16B. (In general: In TR-FRET formats the signal depends on donor and acceptor labels being close together.)
Experimental: Incubation is performed for 1 hour at 37° C., 5% CO2.
When the constitutive activity of the mGluR5 receptor is blocked by the addition of MPEP, that will lead to a decrease in the production of intracellular IP1. […] This signal may be either the intensity ratio E665/E620 or the delta F.
The subject of assay [3] is anti-IP1 antibody labeled with europium cryptate. The assay can be described thus: HTRF test, specificity of the anti-IP1 antibodies (competition with IP1-CY5). In kind it is binding. The settings on record: competition with IP1-CY5 conjugate; FIG. 12. On the procedure:
All the solutions are prepared in 100 mM HEPES buffer pH 7 containing 0.1% BSA and 0.4 M KF.NB. 50 μl of solution of competitors are distributed into the wells of a black bottom microtiter plate so as to obtain the following final concentrations: myo-inositol (10 nM to 1 mM), IP1 Sigma (1 nM to 1 mM), IP2 (1 nM to 100 μM), IP3 (1 nM to 100 μM), PiP2 (1 nM to 100 μM). 50 μl of a 10 nM solution of IP1-CY5 conjugate of Example 10, 50 μl of a solution containing 1.5 nM of an anti-IP1 antibody labeled beforehand with europium cryptate are then distributed in the order indicated. Two wells are also distributed in which the 50 μl of competitors are replaced with 50 μl of buffer so as to constitute blanks (negative controls). The mixture is incubated for 2 h at 4° C. and a time-resolved fluorescence measurement is performed (td=50 μs, tg=400 μs) at 620 nm and 665 nm on a Rubystar® apparatus (BMG Labtech). The ΔF values are calculated using the blank values as reference. The percentages of inhibition obtained with the various competitors are then calculated with the delta F values taking, as 100% value, the signal obtained in the presence of an excess of the IP1 competitor.

The target in assay [4] is T1, mGlu1 receptor (Homo sapiens, UniProt Q13255).
T1 construct: expressed in transfected cells; host or cells: HEK-293 cells, transient, electroporation
T1 sequence (Q13255 19-1194): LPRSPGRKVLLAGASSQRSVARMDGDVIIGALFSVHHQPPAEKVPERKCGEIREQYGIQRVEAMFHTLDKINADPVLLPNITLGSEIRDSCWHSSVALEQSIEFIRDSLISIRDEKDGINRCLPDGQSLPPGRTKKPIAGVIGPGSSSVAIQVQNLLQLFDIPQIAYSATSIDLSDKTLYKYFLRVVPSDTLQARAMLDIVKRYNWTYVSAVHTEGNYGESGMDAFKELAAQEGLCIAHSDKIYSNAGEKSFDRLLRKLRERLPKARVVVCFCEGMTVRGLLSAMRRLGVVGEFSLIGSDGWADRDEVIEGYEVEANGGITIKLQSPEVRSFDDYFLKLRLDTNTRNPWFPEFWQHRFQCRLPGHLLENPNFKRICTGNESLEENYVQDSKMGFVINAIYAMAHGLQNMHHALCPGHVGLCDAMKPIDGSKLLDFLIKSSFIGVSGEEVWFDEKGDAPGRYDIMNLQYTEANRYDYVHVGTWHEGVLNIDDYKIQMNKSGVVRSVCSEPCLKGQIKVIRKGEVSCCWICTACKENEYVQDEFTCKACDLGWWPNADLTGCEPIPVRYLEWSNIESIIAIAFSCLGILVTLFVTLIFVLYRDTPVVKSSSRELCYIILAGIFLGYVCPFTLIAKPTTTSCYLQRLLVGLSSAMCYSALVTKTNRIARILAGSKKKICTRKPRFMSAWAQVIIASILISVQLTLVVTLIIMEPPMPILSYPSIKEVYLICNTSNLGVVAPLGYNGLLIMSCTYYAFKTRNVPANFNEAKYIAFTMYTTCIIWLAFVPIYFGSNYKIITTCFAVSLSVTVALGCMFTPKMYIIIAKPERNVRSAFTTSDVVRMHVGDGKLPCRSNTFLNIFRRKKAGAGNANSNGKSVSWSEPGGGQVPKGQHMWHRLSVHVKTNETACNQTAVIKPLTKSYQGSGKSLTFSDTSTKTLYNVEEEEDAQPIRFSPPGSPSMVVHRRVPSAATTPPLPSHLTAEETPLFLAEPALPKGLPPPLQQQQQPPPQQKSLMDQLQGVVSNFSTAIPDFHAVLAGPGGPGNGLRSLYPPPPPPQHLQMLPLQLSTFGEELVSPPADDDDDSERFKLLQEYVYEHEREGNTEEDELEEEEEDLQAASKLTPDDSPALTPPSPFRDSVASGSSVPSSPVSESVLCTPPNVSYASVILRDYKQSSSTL
The assay can be described thus: IP1 assay (TR-FRET) on HEK-293 cells transiently expressing the mGlu1 receptor, effect of a positive allosteric modulator. In kind it is cell-based. The settings on record: Ro 01-6128 100 nM to 3 mM, 30 min; FIGS. 15A, 15B. On the procedure:
Incubation is performed for 3 h at 37° C., 5% CO2, saturated with moisture, before changing the medium for 100 μl of DMEM containing glutamax (glutamine not degradable to glutamate) and free of serum. Incubation is performed overnight at 37° C. in an incubator containing 5% CO2, saturated with moisture.
This signal may be either the intensity ratio E665/E620, or the delta F.

Turning to “phosphatidylinositol 4,5-biphosphate [PIP2]”, in assay [1], the “decrease in the signal (optical density at 450 nm) caused by the competitor” value (“decrease in the signal” below) is “not recognized by the antibody”.

For `Cc1cccc(C#Cc2ccccc2)n1` [MPEP, 2-methyl-6-(phenylethynyl)pyridine], the “TR-FRET signal (E665/E620 ratio or delta F) as a function of inverse agonist concentration” value in assay [2] was “the signal for the assay will increase as a function of the concentration of inverse agonist”.

As to `O[C@H]1[C@H](O)[C@@H](O)[C@H](O)[C@@H](O)[C@H]1O` [myo-inositol], the “decrease in the signal” value in assay [1] was “does not cause a decrease in the signal even at concentrations of 1 mM”.

For the compound `O=P(O)(O)OC1[C@H](O)[C@H](O)C(O)[C@H](O)[C@H]1O` (stereo partly drawn) [IP1], the “decrease in the signal” value in assay [1] is on record as “induces a reduction in the signal for concentrations below the micromolar range; also recorded: only the use of IP1 as competitor makes it possible to measure inhibition of the signal”. In addition, the “inhibition of the signal by the competitor (HTRF, delta F)” value in assay [3] is on record as “only the use of IP1 as competitor makes it possible to measure inhibition of the signal”.

For `CCOC(=O)NC(=O)C(c1ccccc1)c1ccccc1` [PAM], the “TR-FRET signal (E665/E620 ratio or delta F) as a function of PAM concentration” value in assay [4] is reported as “the signal will decrease as a function of the PAM concentration”.
